Source: publication PMC6548519 (Nature chemical biology, 2019)

How the values were obtained:
FAAH-4 = target: T1, FAAH-4 (Caenorhabditis elegans, UniProt Q9U217); type: biochemical
T1 sequence (Q9U217 1-647): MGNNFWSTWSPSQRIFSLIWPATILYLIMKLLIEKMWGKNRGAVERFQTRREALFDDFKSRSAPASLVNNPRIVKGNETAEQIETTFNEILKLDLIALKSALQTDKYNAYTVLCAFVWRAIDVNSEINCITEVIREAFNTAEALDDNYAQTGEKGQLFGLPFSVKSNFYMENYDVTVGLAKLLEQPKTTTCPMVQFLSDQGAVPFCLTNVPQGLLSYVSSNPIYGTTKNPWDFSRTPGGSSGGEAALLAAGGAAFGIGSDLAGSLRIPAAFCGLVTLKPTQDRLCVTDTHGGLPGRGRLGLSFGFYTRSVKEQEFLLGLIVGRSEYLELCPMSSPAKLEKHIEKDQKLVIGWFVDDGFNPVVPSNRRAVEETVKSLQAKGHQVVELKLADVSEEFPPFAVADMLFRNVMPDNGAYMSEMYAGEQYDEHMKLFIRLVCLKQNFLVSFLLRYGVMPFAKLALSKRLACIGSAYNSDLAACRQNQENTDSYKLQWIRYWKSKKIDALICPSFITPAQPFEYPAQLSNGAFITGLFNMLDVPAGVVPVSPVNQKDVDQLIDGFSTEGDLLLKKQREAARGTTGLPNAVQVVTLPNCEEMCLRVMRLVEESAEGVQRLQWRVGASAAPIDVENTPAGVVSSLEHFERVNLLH

FAAH-1 = target: T2, FAAH-1 (Caenorhabditis elegans, UniProt Q17449); assay: MS-based competitive ABPP of worms treated in vivo; type: cell-based
T2 sequence (Q17449 15-572): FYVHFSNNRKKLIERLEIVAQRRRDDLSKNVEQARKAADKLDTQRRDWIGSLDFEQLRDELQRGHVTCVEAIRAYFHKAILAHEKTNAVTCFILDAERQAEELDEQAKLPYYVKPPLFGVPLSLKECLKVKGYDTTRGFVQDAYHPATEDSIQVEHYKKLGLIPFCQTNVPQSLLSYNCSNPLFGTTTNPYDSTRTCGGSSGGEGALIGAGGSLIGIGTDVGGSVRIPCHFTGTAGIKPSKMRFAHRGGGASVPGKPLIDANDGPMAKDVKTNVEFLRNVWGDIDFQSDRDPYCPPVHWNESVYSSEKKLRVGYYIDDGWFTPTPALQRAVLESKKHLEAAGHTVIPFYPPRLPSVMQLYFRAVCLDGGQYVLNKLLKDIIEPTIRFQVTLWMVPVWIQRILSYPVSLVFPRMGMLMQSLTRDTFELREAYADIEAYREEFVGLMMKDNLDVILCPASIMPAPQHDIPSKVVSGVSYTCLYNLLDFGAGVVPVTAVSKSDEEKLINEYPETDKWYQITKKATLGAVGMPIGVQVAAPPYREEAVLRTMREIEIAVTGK

| SMILES | IC50 (FAAH-4) | MS-based competitive ABPP of worms treated in vivo (50 μM) (FAAH-1) |
| --- | --- | --- |
| O=C(Oc1ccc([N+](=O)[O-])cc1)N1CCC(C(O)(c2ccc3c(c2)OCO3)c2ccc3c(c2)OCO3)CC1 [compound 1, JZL184] | 11 µM | – |
| NC(=O)c1cccc(-c2cccc(OC(=O)NC3CCCCC3)c2)c1 [compound 6, URB597] | – | URB597 also strongly engaged C. elegans FAAH-1 in vivo |
